Data on 104 compounds can be found in PubChem BioAssay AID1996.

In brackets after ≈: the same amount, converted by molar mass. Some results are limits rather than exact numbers.

For the series the following is noted: buffer; pH 7.4; 200.0 µM.
Consider `O=C(CN1CCCCCC1)Nc1ccc(Cl)cc1F`, for which the solubility (kinetic) is 28.1 µg/mL (≈ 98.7 µM). The result for `COC(=O)c1scc(C)c1NC(=O)c1ccccc1F` reads greater than 44 µg/mL; that for `O=C(COC(=O)/C=C/c1ccc(S(=O)(=O)N2CCOCC2)cc1)Nc1ccc(F)c(F)c1F`, 11.6 µg/mL (≈ 23.9 µM).

Regarding `CC(C(=O)NCC1CCCCC1)N(C)Cc1cccc(Cl)c1` (centres undefined), the kinetic solubility amounted to 22.8 µg/mL (≈ 70.6 µM).

With `COc1ccc(-c2csc(Nc3cc(C)ccn3)n2)cc1C`, the solubility (kinetic) is less than 0.2 µg/mL. The result for `CC(C)N(Cc1ccccc1)C(=O)CN1C(=O)NC2(CCOc3ccccc32)C1=O` (centres undefined) reads greater than 61.1 µg/mL. With `Cc1cccc(NC(=O)CCNC(=O)c2ccccc2)c1`, the kinetic solubility worked out at 41.5 µg/mL (≈ 147 µM). The compound `Cc1ccc(NC(=O)COC(=O)C2=COCCO2)c([N+](=O)[O-])c1` registered a solubility (kinetic) of 6.6 µg/mL (≈ 20.5 µM).

The compound `Cc1cccc(NC(=O)CN2CCOCC2)c1C` showed a solubility (kinetic) greater than 37.2 µg/mL.

Consider `O=C(c1cnc2nc3ccccc3n2c1)c1cc(F)ccc1O`, for which the solubility (kinetic) worked out at 9.2 µg/mL (≈ 29.9 µM). The value for `Cc1noc(C(=O)NCC2CCCO2)c1Cl` (centres undefined) was greater than 36.7 µg/mL; that for `Cn1c(-c2ccc(Cl)nc2)nc2ccccc21` was greater than 36.6 µg/mL; that for `Cn1cnc([N+](=O)[O-])c1NCc1ccccc1` was 33.5 µg/mL (≈ 144 µM). Consider `CCC1(CC)Cc2ccccc2-c2nc(CCl)[nH]c(=O)c21`, for which the solubility (kinetic) was found to be 1.2 µg/mL (≈ 3.96 µM). Regarding `COc1cccc(NC(=O)C(C)SCc2ccccc2)c1` (centres undefined), the solubility (kinetic) was greater than 45.2 µg/mL. The result for `Cc1cccc(-c2nc(N)nc(N)n2)c1` reads 28 µg/mL (≈ 139 µM).

On to `CCCCc1nc(C(N)=O)c2[nH]c(=O)n(-c3ccc(OCC)cc3)c2n1`, for which the solubility (kinetic) amounted to 5.6 µg/mL (≈ 15.8 µM). The result for `Clc1ccc(OCc2noc(-c3ccsc3)n2)c(Cl)c1` reads less than 0.4 µg/mL; that for `Cc1cc(C(=O)NCC2COc3ccccc3O2)c2ccccc2n1` (centres undefined), 9.3 µg/mL (≈ 27.8 µM). The result for `N#Cc1ccccc1CSc1ncccc1C(=O)O` reads greater than 40.5 µg/mL. The result for `CN(CC(=O)Nc1ccc(Br)cc1)Cc1ccccc1` reads 25.4 µg/mL (≈ 76.2 µM); that for `Cc1ccc(C2(c3ccc(C)cc3)CC2C(=O)NC(C)C)cc1` (centres undefined), 1 µg/mL (≈ 3.25 µM); that for `O=C(COC(=O)c1cc2ccccc2cc1O)Nc1ccccc1F`, 6.3 µg/mL (≈ 18.6 µM).

As to `CC(=O)N/C(=C\c1ccc2c(c1)OCO2)C(=O)NC(C(=O)O)c1ccccc1` (centres undefined), the solubility (kinetic) was greater than 57.4 µg/mL.

For `CC(C)CCC1(C)NC(=O)N(CC(=O)c2ccc[nH]2)C1=O` (centres undefined), the solubility (kinetic) amounted to 36.1 µg/mL (≈ 124 µM). The result for `Cc1ccc(-c2csc(N=C(N)N)n2)c(C)c1` reads 8 µg/mL (≈ 32.5 µM); that for `N#Cc1c(NCCO)ccc([N+](=O)[O-])c1NCCO`, greater than 39.9 µg/mL. The result for `CC1CC1C(=O)Nc1nc2ccc(S(C)(=O)=O)cc2s1` (centres undefined) reads greater than 46.6 µg/mL; that for `C=CC1CN2CCC1CC2C(OC(C)=O)c1ccnc2ccc(OC)cc12` (centres undefined), greater than 55 µg/mL. The value for `Fc1ccccc1-n1cc(-c2ccccc2)[nH]c1=S` was 6.2 µg/mL (≈ 22.9 µM); that for `O=C(O)/C=C\C(=O)Nc1ccccc1N1CCN(c2ccccc2)CC1` was 52 µg/mL (≈ 148 µM); that for `CC(=O)Nc1ccc(S(=O)(=O)NCCCc2ccccc2)cc1` was greater than 49.9 µg/mL. In the case of `CCCCOc1ccc(N2CC(C(=O)NCc3ccco3)CC2=O)cc1` (centres undefined), the kinetic solubility turned out to be 12.6 µg/mL (≈ 35.4 µM). As for `Cc1ccc(S(=O)(=O)NC(C)(C)CN2CCCCC2)cc1`, the solubility (kinetic) was greater than 46.6 µg/mL. The result for `CC1(C)CC(=O)c2sc(NC(=O)c3ccccc3)nc2C1` reads 22.6 µg/mL (≈ 75.2 µM); that for `Cc1onc(-c2ccccc2)c1CNC(=O)Nc1ccccc1`, greater than 46.1 µg/mL; that for `Cl.Nc1cnn(Cc2ccc(F)cc2)c1`, greater than 34.2 µg/mL.

For the compound `Cc1cccnc1NC(=S)Nc1ccc(F)cc1F`, the solubility (kinetic) is 8 µg/mL (≈ 28.6 µM). Regarding `CC1=C(C(N)=O)C(c2cccs2)NC(=S)N1` (centres undefined), the solubility (kinetic) amounted to 34.7 µg/mL (≈ 137 µM). The result for `O=C1c2ccccc2CN1C(CO)Cc1ccccc1` (centres undefined) reads greater than 40.1 µg/mL; that for `Cn1ccnc1SCC(=O)Nc1ccc2c(c1)OCCO2`, greater than 45.8 µg/mL; that for `O=C(C(=O)N1CCCCC1)c1c(-c2ccccc2)[nH]c2ccccc12`, greater than 49.9 µg/mL. The result for `COc1ccc(C=O)cc1OC(=O)N1CCOCC1` reads greater than 39.8 µg/mL; that for `CC(NC(=O)CN1CCOCC1)c1ccc(F)cc1` (centres undefined), greater than 39.9 µg/mL; that for `CCOC(=O)C1=C(COC(=O)[C@@H](NC(=O)c2cccc(C)c2)C(C)C)NC(=O)NC1C` (some centres undefined), greater than 64.7 µg/mL. The result for `Cc1ccc(CNC(=O)CN2C(=O)c3ccccc3S2(=O)=O)cc1` reads 12.5 µg/mL (≈ 36.3 µM); that for `O=C(COc1ncnc2ccccc12)NCCc1ccccc1`, 44.8 µg/mL (≈ 146 µM); that for `CCOc1ccc(N2C(=O)NC(=O)/C(=C\c3ccccc3[N+](=O)[O-])C2=O)cc1`, greater than 57.2 µg/mL. `CCCCC(=O)Nc1ccc(NC(=O)c2ccco2)cn1`: the kinetic solubility was found to be 36.9 µg/mL (≈ 128 µM). For the compound `CN1C2=C(C(=O)CC(C)(C)C2)C(c2cccs2)C2=C1CC(C)(C)CC2=O`, the solubility (kinetic) came to 32.6 µg/mL (≈ 88.2 µM). The value for `CCOn1c(=O)c(=O)n(OC)c2ccccc21` was greater than 35.4 µg/mL; that for `CCc1sc(C(=O)Nc2nccs2)cc1C` was 3.6 µg/mL (≈ 14.3 µM). The result for `CN1C(=O)C(CC(=O)NC2CCCCC2)N(C)C1=O` (centres undefined) reads greater than 40.1 µg/mL; that for `CCn1cc(C(C)NC(=O)Nc2ccc3c(c2)OCO3)c(C)n1` (centres undefined), greater than 47.5 µg/mL; that for `Nc1nonc1OCCCCOc1nonc1N`, 21.1 µg/mL (≈ 82.4 µM). The result for `CCCN(CCC)CC(C)(C)NS(=O)(=O)c1ccc(Cl)cc1` reads 39.6 µg/mL (≈ 114 µM); that for `COc1ccc(CC(=O)NCc2ccccc2)cc1OC`, greater than 42.8 µg/mL; that for `O=C(Nc1ccc2c(c1)OCCO2)C1CCCC1`, greater than 37.1 µg/mL. Regarding `CN(C(=O)COC(=O)/C=C/c1cccs1)C1CCCCC1`, the kinetic solubility was 17.7 µg/mL (≈ 57.6 µM).

As for `COc1ccc2nc(SCC(=O)C(C)(C)C)[nH]c2c1`, the kinetic solubility amounted to 30.9 µg/mL (≈ 111 µM). In the case of `O=C(O)CN1C(=O)/C(=C/c2ccccc2Cl)Oc2ccccc21`, the kinetic solubility was greater than 49.5 µg/mL. The value for `CC1(C)c2cc(O)ccc2OC1N1CCOCC1` (centres undefined) was greater than 37.4 µg/mL; that for `O=C1NC2(CCCCC2)C(=O)N1c1cccc(Cl)c1` was 11.1 µg/mL (≈ 39.8 µM); that for `CC(=O)Nc1ccc(N2Cc3ccccc3C2)cc1` was 18.7 µg/mL (≈ 74.1 µM). The value for `COc1ccc(OC)c2c1sc(=NC(=O)C1COc3ccccc3O1)n2C` (centres undefined) was less than 0.4 µg/mL; that for `Cc1cccc(NC(=O)C2COc3ccccc3O2)c1` (centres undefined) was 7.8 µg/mL (≈ 29 µM).

With `c1ccc(-c2csc(Nc3ccccn3)n2)cc1`, the solubility (kinetic) is 0.3 µg/mL (≈ 1.18 µM). `Nc1nc(NCCOCCO)nc(NC2CCCCC2)c1[N+](=O)[O-]`: the solubility (kinetic) is greater than 51.1 µg/mL. The result for `COc1cc2c(cc1OC)CN(Cc1ccc(C)cc1)CC2` reads 35.1 µg/mL (≈ 118 µM); that for `COc1ccc(C(C)NC(=O)C23CC4CC(CC(C4)C2)C3)cc1OC` (centres undefined), 40.2 µg/mL (≈ 117 µM); that for `O=C(/C=C/c1cccnc1)c1ccc(O)cc1`, 28.5 µg/mL (≈ 127 µM). The value for `Cc1ccc(C23CC4CC(CC(C(=O)NC(C)C)(C4)C2)C3)cc1` was less than 0.7 µg/mL; that for `COc1ccc(-n2c(O)c(C=NCc3ccc4c(c3)OCO4)c(=O)[nH]c2=O)cc1` was 6.8 µg/mL (≈ 17.2 µM). The value for `CCn1cc(C(=O)NCCc2ccc(Cl)cc2)c(=O)c2ccc(C)nc21` was 5.1 µg/mL (≈ 13.8 µM). For the compound `Cc1cc(=O)oc2cc(NC(=O)Cc3ccccc3[N+](=O)[O-])ccc12`, the kinetic solubility is 0.9 µg/mL (≈ 2.66 µM). This solubility kinetic is about 5.7-fold lower than that of the compound before.

For `CN1c2ccc([N+](=O)[O-])cc2N(C)C1(C)c1ccccc1` (centres undefined), the kinetic solubility stood at 1.2 µg/mL (≈ 4.24 µM). This solubility kinetic and that of the compound before are within 1.5-fold of each other. The result for `CC(C)c1ccc(C(=O)CN2C(=O)NC3(CCc4ccccc43)C2=O)cc1` (centres undefined) reads 7.1 µg/mL (≈ 19.6 µM); that for `C=CCOc1ccc(CN(C)C(=O)C2CCCO2)cc1` (centres undefined), greater than 41.3 µg/mL; that for `O=C(COC(=O)c1cccnc1Cl)NCCC1=CCCCC1`, greater than 48.4 µg/mL. For `N#CC(C(N)=O)=C1CCCCC1`, the solubility (kinetic) was greater than 24.6 µg/mL.

In the case of `COc1ccccc1CNC(=O)COc1cccnc1[N+](=O)[O-]`, the kinetic solubility was greater than 47.6 µg/mL. The result for `FC(F)(F)c1ccc(-n2cn[nH]c2=S)cc1` reads greater than 36.8 µg/mL; that for `CC12CC3CC(C)(C1)CC(C(O)CN1CCOCC1)(C3)C2.Cl` (centres undefined), greater than 49.5 µg/mL; that for `O=C(Cc1ccccc1)NCC(=O)Nc1ccccc1Br`, 51.4 µg/mL (≈ 148 µM). The result for `Cc1cc(=O)n2c(n1)NC(Nc1cccc(C)c1C)=NC2c1ccccc1` (centres undefined) reads 1.7 µg/mL (≈ 4.73 µM). The value for `CC1(C)CC(=O)C(C(N)=NC(=O)c2ccc([N+](=O)[O-])cc2)=C(O)C1` was 0.7 µg/mL (≈ 2.11 µM); that for `CCC(Sc1nc2ccccc2o1)C(=O)O` (centres undefined) was 35.2 µg/mL (≈ 148 µM); that for `Clc1ccc(C2Nc3cccc4cccc(c34)N2)cc1Cl` was 0.4 µg/mL (≈ 1.27 µM).

The compound `O=C(COC(=O)c1cc(=O)c2ccccc2o1)Nc1ccccc1F` gave a solubility (kinetic) greater than 51.2 µg/mL. The compound `O=C(Nc1cccc(Cl)c1N1CCOCC1)c1cccs1` displayed a kinetic solubility of 1.6 µg/mL (≈ 4.96 µM). The value for `Cc1ccc(S(=O)(=O)NCc2cccnc2)c(C)c1` was greater than 41.5 µg/mL; that for `C=CCNC(=S)N1CCC(C(N)=O)CC1` was greater than 34.1 µg/mL; that for `CC(=O)Nc1ccccc1OCC(=O)NCCC1=CCCCC1` was greater than 47.5 µg/mL. The value for `O=C1CCCN1CCCNS(=O)(=O)c1ccc(F)cc1F` was greater than 47.8 µg/mL; that for `CCCCCC1CC(CC(=O)NC(=S)Nc2ccccc2Cl)C(=O)O1` (centres undefined) was 1.4 µg/mL (≈ 3.66 µM).

Turning to `O=C(COC(=O)Cc1ccccc1[N+](=O)[O-])NCC1CCCCC1`, the solubility (kinetic) was determined as 10.8 µg/mL (≈ 32.3 µM). The result for `CNS(=O)(=O)c1cc2c3c(cccc3c1)C(=O)NC2=O` reads 6.3 µg/mL (≈ 21.7 µM). The value for `O=C(CCN1CCN(c2ccccc2F)CC1)Nc1ccc(F)cc1` was 10.4 µg/mL (≈ 30.1 µM). The result for `COC(=O)Nc1ccc(S(=O)(=O)N2CCCC(C(=O)NCC3CCCO3)C2)cc1` (centres undefined) reads greater than 63.8 µg/mL; that for `COc1ccccc1NC(=O)NCC1CC1(Cl)Cl` (centres undefined), 42.1 µg/mL (≈ 146 µM); that for `CC(=O)Oc1cccc(Nc2ncnc3ccccc23)c1`, greater than 41.9 µg/mL.

The compound `Cc1cc(OCC(=O)N(C)C2CCCCC2)cc(C)c1Cl` displayed a solubility (kinetic) of 15.4 µg/mL (≈ 49.7 µM).

In turn, `Cc1ccc(S(=O)(=O)/N=C(/Nc2nc(C)cs2)c2ccccc2)cc1` had a solubility (kinetic) of 8 µg/mL (≈ 21.5 µM).

The compound `Cc1cc(NC(=O)c2cc(-c3ccncc3)nc3ccccc23)ccc1Br` gave a solubility (kinetic) of 1.2 µg/mL (≈ 2.87 µM).

Usually solubility (kinetic) stands for solubility judged after dilution from a stock solution rather than from solid.
